Measured values published in patent US20030096237A1, “Determination of the ability of patients to respond to a tumor treatment” (priority 2000, published 2003).

Tested on: CNCM I-2546
Experiment: oligonucleotide array analysis of IFN-α modulated gene expression
Format: cell-based, human
Design: key to nAD M94880 mhc class i (hla-a*8001): normalized average difference between perfect and mismatch probeset signals
Method: All these cell lines were cultured in RPMI medium supplemented with 10% FCS, glutamine (2 mM), sodium pyruvate (1 mM), non-essential amino acids and HEPES buffer (10 mM) (all from GIBCO Life Sciences, Paisley, UK). When confluent, the cells were passaged by trypsinization.
Cultured melanoma cells were harvested by scraping and total cellular RNA was extracted. 10 μg from each sample were used directly as templates for cDNA synthesis using a commercial kit (Roche Molecular Biochemicals, Rotkreuz, Switzerland). The T7 promoter sequence incorporated into the cDNA synthesis primer allowed template amplification and biotin labeling by in vitro transcription using a commercial kit (Affymetrix, Santa Clara, Calif.). After alkaline heat fragmentation […] was hybridised to the array (Affymetrix, Santa Clara, Calif.) and all subsequent steps were performed following standard procedures as supplied with the arrays. Raw data were collected with a confocal laser scanner (Hewlett Packard, Palo Alto, Calif.) using GeneChip software v3.1 (Affymetrix, Santa Clara, Calif.).
Raw data were normalized based on the total chip signal obtained upon hybridisation of ME15 cell line cDNA. This array was selected because: i) the 5′/3′ intensity ratio of control genes was smaller than 3; ii)>25% of the genes are called “present” by Genechip; iii) the image appearance is homogeneous with low background and no sign of mechanical chip damage.
The normalized average difference (nAD) between the signals of the perfect and of the mismatch probesets for each gene was used as the expression level of a given gene. At least one nAD value in a pairwise comparison of data has to exceed 50 to be included. Based on nAD, change factors related to IFN-α exposure were also calculated. Negative nAD values were set to 20 in order to avoid the calculation of artificially high modifications. In order to exclude artefacts, only genes with robust change factors, greater than 2-fold, were included in the analysis. […] Genes were clustered according to their mode of regulation.
Total cellular RNA was extracted from the sensitive and resistant melanoma cell lines identified above, reverse transcribed and processed for hybridization to an oligonucleotide array (Hu6800FL, PN 900183) containing probe sets derived from 7000 full-length human genes. Expression levels for each gene were calculated as normalized average difference (nAD, see materials and methods).
Patterns of genes expressed in IFN-α sensitive and resistant melanoma cell lines were investigated upon 48 hour culture in the presence of IFN-α. CNCM I-2546 and CNCM I-2545 were studied in detail.
In Table 2 below, CNCM I-2546 and CNCM I-2545 cultured for 48 hours in the absence or in the presence of 100 U/ml IFN-α were used to assay cytokine modulated gene expression as matched with data obtained in fibrosarcoma cells. This analysis yielded six clusters of genes. […] Data are presented as average difference of signal intensity between match and mismatch probesets.
In Table 3 below, CNCM I-2546 and CNCM I-2545 cell lines cultured for 48 hours in the absence or in the presence of 100 U/ml IFN-α were used to identify novel cytokine induced genes whose expression was not found to be modulated in fibrosarcoma cells. Cluster 1 includes genes inducible in the CNCM I-2546 sensitive but not in the CNCM I-2545 resistant cell line. Cluster 2 comprises genes inducible in both lines. Data are presented as average difference of signal intensity between match and mismatch probesets.

[1] = CNCM I-2546 (+) IFN-α 100 U/ml 48 hours, (−) 0
[2] = CNCM I-2546 (+) IFN-α 100 U/ml 48 hours, (−) 24
[3] = CNCM I-2546 (+) IFN-α 100 U/ml 48 hours, (−) 43
[4] = CNCM I-2546 (+) IFN-α 100 U/ml 48 hours, (−) 55
[5] = CNCM I-2546 (+) IFN-α 100 U/ml 48 hours, (−) 77
[6] = CNCM I-2546 (+) IFN-α 100 U/ml 48 hours, (−) 107
[7] = CNCM I-2546 (+) IFN-α 100 U/ml 48 hours, (−) 110
[8] = CNCM I-2546 (+) IFN-α 100 U/ml 48 hours, (−) 150

nAD L37043 casein kinase i epsilon [1]: 441
nAD L40387 thyroid receptor interactor (trip14) [1]: 85
nAD D32050 alanyl-trna synthetase (CNCM I-2546 (+) IFN-α 100 U/ml 48 hours, (−) 21): 427
nAD L42243 ifnar2 gene (interferon receptor) (CNCM I-2546 (+) IFN-α 100 U/ml 48 hours, (−) 46): −4
nAD M19650 2′,3′-cyclic nucleotide 3prime-phosphodiesterase [4]: 269
nAD X95325 dna binding protein a variant (CNCM I-2546 (+) IFN-α 100 U/ml 48 hours, (−) 58): 375
nAD Z26491 gene catechol o-methyltransferase (CNCM I-2546 (+) IFN-α 100 U/ml 48 hours, (−) 73): 337
nAD U69126 fuse binding protein 2 (fbp2) [5]: 302
nAD U50327 protein kinase c substrate 80k-h gene (prkcsh) (CNCM I-2546 (+) IFN-α 100 U/ml 48 hours, (−) 80): 312
nAD U70063 human acid ceramidase (CNCM I-2546 (+) IFN-α 100 U/ml 48 hours, (−) 86): 221
nAD L35249 vacuolar h + -atpase mr 56,000 subunit (ho57) (CNCM I-2546 (+) IFN-α 100 U/ml 48 hours, (−) 92): 227
nAD U18018 ela enhancer binding protein (ela-f) [6]: 340
nAD U65579 mitochondrial nadh dehydrogenase-ubiquinone [7]: 377
nAD D78132 rheb gene, ras-related gtp binding protein gene (CNCM I-2546 (+) IFN-α 100 U/ml 48 hours, (−) 119): 307
nAD X70848 protein phosphatase 1, catalytic subunit (CNCM I-2546 (+) IFN-α 100 U/ml 48 hours, (−) 122): 370
nAD U91316 acyl-coa thioester hydrolase (CNCM I-2546 (+) IFN-α 100 U/ml 48 hours, (−) 141): 706
nAD U47025 fetal brain glycogen phosphorylase b (CNCM I-2546 (+) IFN-α 100 U/ml 48 hours, (−) 193): 924
nAD Z47055 farnesyl pyrophosphate synthetase like (CNCM I-2546 (+) IFN-α 100 U/ml 48 hours, (−) 263): 529
nAD X90846 mixed lineage kinase 2 (CNCM I-2546 (+) IFN-α 100 U/ml 48 hours, (−) 425): 173
nAD L13210 mac-2 binding protein (CNCM I-2546 (+) IFN-α 100 U/ml 48 hours, (−) 444): 2016
nAD U50648 interferon-inducible rna-dependent protein kinase (pkr) (CNCM I-2546 (+) IFN-α 100 U/ml 48 hours, (−) −70): 71
Substance: IFN-α
nAD U51127 interferon regulatory factor 5 (CNCM I-2546 (+) IFN-α 100 U/ml 48 hours, (−) 3): 116
nAD Z56281 interferon regulatory factor 3 (CNCM I-2546 (+) IFN-α 100 U/ml 48 hours, (−) 12): 136
nAD M98343 amplaxin (ems1) (CNCM I-2546 (+) IFN-α 100 U/ml 48 hours, (−) 15): 141
nAD J03909 gamma-interferon-inducible protein (ip-30) (CNCM I-2546 (+) IFN-α 100 U/ml 48 hours, (−) 18): 57
nAD M60784 ul snrnp-specific protein [2]: 216
nAD X57351 1-8d gene from interferon-inducible gene family [2]: 297
nAD D28137 bst-2 (CNCM I-2546 (+) IFN-α 100 U/ml 48 hours, (−) 28): 305
nAD S81914 iex-1 = radiation-inducible immediate-early gene (CNCM I-2546 (+) IFN-α 100 U/ml 48 hours, (−) 31): 312
nAD X96401 rox protein (CNCM I-2546 (+) IFN-α 100 U/ml 48 hours, (−) 34): 143
nAD M79462 pml-1 [3]: 1
nAD U22970 16-jun gene, interferon-inducible peptide (6-16) [3]: 2363
nAD U52513 rig-g (CNCM I-2546 (+) IFN-α 100 U/ml 48 hours, (−) 49): 96
nAD K01900 lymphocyte interferon alpha type 201 [4]: 85
nAD X15949 interferon regulatory factor-2 (irf-2) (CNCM I-2546 (+) IFN-α 100 U/ml 48 hours, (−) 67): 11
nAD X76538 mpv17 [5]: 313
nAD U09579 melanoma differentiation associated (mda-6) (CNCM I-2546 (+) IFN-α 100 U/ml 48 hours, (−) 83): 361
nAD Y00264 amyloid a4 precursor (CNCM I-2546 (+) IFN-α 100 U/ml 48 hours, (−) 89): 304
nAD U41515 dss1 (CNCM I-2546 (+) IFN-α 100 U/ml 48 hours, (−) 104): 51
nAD X04412 plasma gelsolin [6]: 372
nAD D50914 EST [7]: 359
nAD U72206 guanine nucleotide regulatory factor (lfp40) (CNCM I-2546 (+) IFN-α 100 U/ml 48 hours, (−) 113): 459
nAD M31013 nonmuscle myosin heavy chain (nmhc) (CNCM I-2546 (+) IFN-α 100 U/ml 48 hours, (−) 132): 441
nAD J00212 leukocyte interferon (ifn-alpha) (CNCM I-2546 (+) IFN-α 100 U/ml 48 hours, (−) 138): 49
nAD D49824 hla-b null allele (CNCM I-2546 (+) IFN-α 100 U/ml 48 hours, (−) 144): 925
nAD HG2917 major histocompatibility complex, class i, e (CNCM I-2546 (+) IFN-α 100 U/ml 48 hours, (−) 147): 813
nAD D21235 hhr23a protein [8]: 582
nAD U61263 acetolactate synthase homolog [8]: 464
nAD M65028 heterogeneous nuclear ribonucleoprotein a/b (CNCM I-2546 (+) IFN-α 100 U/ml 48 hours, (−) 153): 326
nAD HG658 major histocompatibility complex, class 1 c (CNCM I-2546 (+) IFN-α 100 U/ml 48 hours, (−) 156): 1692
nAD J04182 lysosomal membrane glycoprotein-1 (lamp1) (CNCM I-2546 (+) IFN-α 100 U/ml 48 hours, (−) 168): 452
nAD L07633 interferon-gamma (CNCM I-2546 (+) IFN-α 100 U/ml 48 hours, (−) 184): 463
nAD U18009 chromosome 17q21 clone lf113 (CNCM I-2546 (+) IFN-α 100 U/ml 48 hours, (−) 187): 735
nAD M94880 mhc class i (hla-a*8001) (CNCM I-2546 (+) IFN-α 100 U/ml 48 hours, (−) 202): 932
nAD J00105 beta-2 microglobulin gene (CNCM I-2546 (+) IFN-α 100 U/ml 48 hours, (−) 248): 1453
nAD U78525 human eukaryotic translation initiation factor (eif3) (CNCM I-2546 (+) IFN-α 100 U/ml 48 hours, (−) 275): 589
nAD U65932 extracellular matrix protein 1 (ecm1) (CNCM I-2546 (+) IFN-α 100 U/ml 48 hours, (−) 300): 907
nAD J04444 cytochrome c-1 gene (CNCM I-2546 (+) IFN-α 100 U/ml 48 hours, (−) 309): 1286
nAD HG1612 macmarcks (CNCM I-2546 (+) IFN-α 100 U/ml 48 hours, (−) 401): 1440
nAD M34338 spermidine synthase (CNCM I-2546 (+) IFN-α 100 U/ml 48 hours, (−) 429): 1413
nAD K03515 neuroleukin (CNCM I-2546 (+) IFN-α 100 U/ml 48 hours, (−) 487): 2126
nAD M30818 interferon-induced cellular resistance mediator protein (CNCM I-2546 (+) IFN-α 100 U/ml 48 hours, (−) 756): 155
nAD U72882 interferon-induced leucine zipper protein (ifp35) (CNCM I-2546 (+) IFN-α 100 U/ml 48 hours, (−) −9): 502
nAD U53830 interferon regulatory factor 7a (CNCM I-2546 (+) IFN-α 100 U/ml 48 hours, (−) −31): 237
nAD M97935 transcription factor isgf-3 (CNCM I-2546 (+) IFN-α 100 U/ml 48 hours, (−) −37): 296
nAD X57522 ring4 cdna (CNCM I-2546 (+) IFN-α 100 U/ml 48 hours, (−) −49): 97
nAD X07730 prostate specific antigen (CNCM I-2546 (+) IFN-α 100 U/ml 48 hours, (−) −64): 132
nAD U01824 glutamate/aspartate transporter (CNCM I-2546 (+) IFN-α 100 U/ml 48 hours, (−) −73): 91
nAD J04164 interferon-inducible protein 27-sep (CNCM I-2546 (+) IFN-α 100 U/ml 48 hours, (−) −89): 2066
nAD M92642 alpha-1 type xvi collagen (col16a1) (CNCM I-2546 (+) IFN-α 100 U/ml 48 hours, (−) −147): −133
nAD M13755 interferon-induced 17-kda/15-kda protein (CNCM I-2546 (+) IFN-α 100 U/ml 48 hours, (−) −181): 716
nAD X67325 p27 (CNCM I-2546 (+) IFN-α 100 U/ml 48 hours, (−) −211): 410
change factor (CF) D21235 hhr23a protein (CNCM I-2546, IFN-α 100 U/ml 48 hours): 2.88
